Results from US4363805A, “Aminodesoxy-1.4;3.6-dianhydrohexitol nitrates and pharmaceutical composition” (Firma Willmar Schwabe, priority 1980, dated 1982).

Columns and labels:
[1] = tested on: isolated guinea pig hearts; experiment: Experiments on Langendorff hearts (coronary flowthrough, inotropism, frequency); conditions: Cavia porcellus, read-out: flowthrough, percentage change with regard to the initial value
Procedure: After reaching the stationary state in the 30th minute, the hearts were each perfused with 50 ml. tyrode solution with a content of test substance of, in each case, 25 μg./ml. Each test substance was tested on 3-6 hearts.
In each case, there was measured the inotropism, the flowthrough and the frequency, whereby the values given in Table I are average values of the percentage changes in comparison with the initial values.

female NMRI-albino mice = experiment: Acute toxicity, intravenous, mice; assay type: in vivo; conditions: within 24 hours
[2] = Acute toxicity, intravenous, mice; assay type: in vivo; conditions: mouse, in vivo; intravenous, within 24 hours; read-out: Evaluated LD50-range
narcotised guinea pigs = experiment: Blood pressure experiments on guinea pigs, i.v.; assay type: in vivo, guinea pig; conditions: for blood pressure before: before administration
mongrel cats = experiment: Inotropic and heart-circulatory effectiveness on narcotised cats, intravenous; assay type: in vivo, cat; conditions: 6 animals; for blood pressure before / dp/dt (inotropism) before / heart frequency before: before administration

## O=[N+]([O-])O[C@H]1CO[C@H]2[C@@H]1OC[C@@H]2NC12CC3CC(CC(C3)C1)C2 [11 b]
[1]
  activation at 25 µg/mL: 145%

## COc1ccc(CCCN[C@H]2CO[C@H]3[C@@H]2OC[C@@H]3O[N+](=O)[O-])cc1OC [31 b]
[1]
  activation at 25 µg/mL: 79.4%

## CC(=O)N[C@H]1CO[C@H]2[C@@H]1OC[C@@H]2O[N+](=O)[O-] [Example 6, 5-Acetylamino-5-desoxy-1.4;3.6-dianhydro-L-iditol 2-nitrate]
Female NMRI-albino mice; 200 mg/kg i.v.
  Frequency of death: 0/3
[2]
  LD50 at 24 h: > 200 mg/kg
Narcotised guinea pigs; 0.25 mg/kg i.v.
  blood pressure after: 63.75 ± 7.32 mm.Hg
  blood pressure Δ: -7.00 mm.Hg
  blood pressure before: 70.75 ± 6.36 mm.Hg
Narcotised guinea pigs; 1.00 mg/kg i.v.
  blood pressure after: 55.75 ± 7.94 mm.Hg
  blood pressure Δ: -14.50 mm.Hg
Narcotised guinea pigs; 2.50 mg/kg i.v.
  blood pressure after: 47.75 ± 5.88 mm.Hg
  blood pressure Δ: -17.75 mm.Hg

## CN(CCc1ccccc1)[C@H]1CO[C@H]2[C@@H]1OC[C@@H]2O[N+](=O)[O-] [Example 20, 5-[N-(2-Phenylethyl)-N-methylamino]-5-desoxy-1.4;3.6-dianhydro-L-iditol 2-nitrate]
[1]
  activation at 25 µg/mL: 66.9%

## CN(CCCCCc1ccccc1)[C@H]1CO[C@H]2[C@@H]1OC[C@@H]2O[N+](=O)[O-] [Example 23, 5-[N-Methyl-N-(5-phenylpentyl)-amino]-5-desoxy-1.4;3.6-dianhydro-L-iditol 2-nitrate]
[1]
  activation at 25 µg/mL: 156%

## CN(CC=Cc1ccccc1)[C@H]1CO[C@H]2[C@@H]1OC[C@@H]2O[N+](=O)[O-] [Example 24, 5-(N-Cinnamyl-N-methylamino)-5-desoxy-1.4;3.6-dianhydro-L-iditol 2-nitrate]
[1]
  activation at 25 µg/mL: 200%

## O=[N+]([O-])O[C@H]1CO[C@H]2[C@@H]1OC[C@@H]2NCCc1ccccc1 [Example 27, 5-(2-Phenylethylamino)-5-desoxy-1.4;3.6-dianhydro-L-iditol 2-nitrate]
[1]
  activation at 25 µg/mL: 67.2%

## CN(CCCOc1ccccc1)[C@H]1CO[C@H]2[C@@H]1OC[C@@H]2O[N+](=O)[O-] [Example 34, 5-[N-Methyl-N-(3-phenoxypropyl)-amino]-5-desoxy-1.4;3.6-dianhydro-L-iditol 2-nitrate]
Mongrel cats; 0.25 mg/kg i.v.
  blood pressure before: 95.2 mm.Hg
  dp/dt (inotropism) before: 5333 mm.Hg/sec
  heart frequency before: 180.3 min⁻¹
  blood pressure WD: 4.1 min
  blood pressure after: 73.7 mm.Hg
  blood pressure Δ: -21.5 mm.Hg
  dp/dt (inotropism) after: 4650 mm.Hg/sec
  dp/dt (inotropism) Δ: -683 mm.Hg/sec
  dp/dt WD: 2.8 min
  heart frequency after: 179.3 min⁻¹
  heart frequency Δ: -1.0 min⁻¹
Mongrel cats; 0.50 mg/kg i.v.
  blood pressure WD: 4.2 min
  blood pressure after: 74.8 mm.Hg
  blood pressure Δ: -24.2 mm.Hg
  dp/dt (inotropism) after: 4683 mm.Hg/sec
  dp/dt (inotropism) Δ: -817 mm.Hg/sec
  dp/dt WD: 3,7 min
  heart frequency after: 178.0 min⁻¹
  heart frequency Δ: -1.0 min⁻¹
Mongrel cats; 1.00 mg/kg i.v.
  blood pressure WD: 6.5 min
  blood pressure after: 74.5 mm.Hg
  blood pressure Δ: -30.8 mm.Hg
  dp/dt (inotropism) after: 4400 mm.Hg/sec
  dp/dt (inotropism) Δ: -1033 mm.Hg/sec
  dp/dt WD: 4.2 min
  heart frequency after: 172.0 min⁻¹
  heart frequency Δ: -3.0 min⁻¹
Mongrel cats; 2.50 mg/kg i.v.
  blood pressure WD: > 9.0 min
  blood pressure after: 69.2 mm.Hg
  blood pressure Δ: -39.7 mm.Hg
  dp/dt (inotropism) after: 3850 mm.Hg/sec
  dp/dt (inotropism) Δ: -1450 mm.Hg/sec
  dp/dt WD: > 6.5 min
  heart frequency after: 158.0 min⁻¹
  heart frequency Δ: -15.0 min⁻¹
[1]
  activation at 25 µg/mL: 50%

## O=[N+]([O-])O[C@H]1CO[C@H]2[C@@H]1OC[C@@H]2NCCCOc1ccccc1 [Example 36, 5-(3-Phenoxypropylamino)-5-desoxy-1.4;3.6-dianhydro-L-iditol 2-nitrate]
Female NMRI-albino mice; 50 mg/kg i.v.
  Frequency of death: 0/3
Female NMRI-albino mice; 100 mg/kg i.v.
  Frequency of death: 5/6
[2]
  LD50 at 24 h: 50 to 100 mg/kg
Mongrel cats; 0.25 mg/kg i.v.
  blood pressure before: 114.5 mm.Hg
  dp/dt (inotropism) before: 7933 mm.Hg/sec
  heart frequency before: 200.3 min⁻¹
  blood pressure WD: 5.1 min
  blood pressure after: 97.7 mm.Hg
  blood pressure Δ: -19.8 mm.Hg
  dp/dt (inotropism) after: 7433 mm.Hg/sec
  dp/dt (inotropism) Δ: -500 mm.Hg/sec
  dp/dt WD: 3.3 min
  heart frequency after: 204.3 min⁻¹
Mongrel cats; 0.50 mg/kg i.v.
  blood pressure WD: 8.5 min
  blood pressure after: 84.5 mm.Hg
  blood pressure Δ: -28.0 mm.Hg
  dp/dt (inotropism) after: 6650 mm.Hg/sec
  dp/dt (inotropism) Δ: -1183 mm.Hg/sec
  dp/dt WD: 7.9 min
  heart frequency after: 200.3 min⁻¹
  heart frequency Δ: -3.7 min⁻¹
Mongrel cats; 1.00 mg/kg i.v.
  blood pressure WD: 14.8 min
  blood pressure after: 74.3 mm.Hg
  blood pressure Δ: -42.5 mm.Hg
  dp/dt (inotropism) after: 5467 mm.Hg/sec
  dp/dt (inotropism) Δ: -2416 mm.Hg/sec
  dp/dt WD: 19.0 min
  heart frequency after: 194.3 min⁻¹
  heart frequency Δ: -8.0 min⁻¹
Mongrel cats; 2.50 mg/kg i.v.
  blood pressure WD: > 10 min
  blood pressure after: 62.5 mm.Hg
  blood pressure Δ: -58.3 mm.Hg
  dp/dt (inotropism) after: 4000 mm.Hg/sec
  dp/dt (inotropism) Δ: -3883 mm.Hg/sec
  dp/dt WD: 10 min
  heart frequency after: 175.3 min⁻¹
  heart frequency Δ: -22.4 min⁻¹

## N#Cc1ccccc1OCC(O)CN[C@H]1CO[C@H]2[C@@H]1OC[C@@H]2O[N+](=O)[O-] (stereo partly drawn) [Example 50, 5-[2-Hydroxy-3-(2-cyanophenoxy)-propylamino]-5-desoxy-1.4;3.6-dianhydro-L-iditol 2-nitrate]
Female NMRI-albino mice; 100 mg/kg i.v.
  Frequency of death: 0/3
Female NMRI-albino mice; 200 mg/kg i.v.
  Frequency of death: 4/6
[2]
  LD50 at 24 h: 100 to 200 mg/kg
Mongrel cats; 0.25 mg/kg i.v.
  blood pressure before: 121.0 mm.Hg
  dp/dt (inotropism) before: 6533 mm.Hg/sec
  heart frequency before: 190.7 min⁻¹
  blood pressure WD: 8.5 min
  blood pressure after: 108.3 mm.Hg
  blood pressure Δ: -12.7 mm.Hg
  dp/dt (inotropism) after: 6033 mm.Hg/sec
  dp/dt (inotropism) Δ: -500 mm.Hg/sec
  dp/dt WD: 8.2 min
  heart frequency after: 195.3 min⁻¹
  heart frequency Δ: +4.6 min^-1
Mongrel cats; 0.50 mg/kg i.v.
  blood pressure WD: 9.8 min
  blood pressure after: 102.2 mm.Hg
  blood pressure Δ: -18.0 mm.Hg
  dp/dt (inotropism) after: 5133 mm.Hg/sec
  dp/dt (inotropism) Δ: -1267 mm.Hg/sec
  dp/dt WD: 8.2 min
  heart frequency after: 195.3 min⁻¹
  heart frequency Δ: +3.3 min^-1
Mongrel cats; 1.00 mg/kg i.v.
  blood pressure WD: 14.8 min
  blood pressure after: 94.2 mm.Hg
  blood pressure Δ: -27.8 mm.Hg
  dp/dt (inotropism) after: 4200 mm.Hg/sec
  dp/dt (inotropism) Δ: -2067 mm.Hg/sec
  dp/dt WD: 14.8 min
  heart frequency after: 191.7 min⁻¹
  heart frequency Δ: 0 min⁻¹
Mongrel cats; 2.50 mg/kg i.v.
  blood pressure WD: > 10 min
  blood pressure after: 77.5 mm.Hg
  blood pressure Δ: -45.8 mm.Hg
  dp/dt (inotropism) after: 2733 mm.Hg/sec
  dp/dt (inotropism) Δ: -3584 mm.Hg/sec
  dp/dt WD: > 10 min
  heart frequency after: 178.7 min⁻¹
  heart frequency Δ: -10.3 min⁻¹
Narcotised guinea pigs; 0.25 mg/kg i.v.
  blood pressure after: 39.25 ± 6.97 mm.Hg
  blood pressure Δ: -16.25 mm.Hg
  blood pressure before: 55.50 ± 7.35 mm.Hg
Narcotised guinea pigs; 1.00 mg/kg i.v.
  blood pressure after: 31.00 ± 3.94 mm.Hg
  blood pressure Δ: -21.50 mm.Hg
Narcotised guinea pigs; 2.50 mg/kg i.v.
  blood pressure after: 22.75 ± 1.80 mm.Hg
  blood pressure Δ: -27.75 mm.Hg
